Test systems include UACC-62; SK-OV-3; RXF 393; CAKI-1; HCT-116; MDA-N; MCF7; SW-620; COLO 205; OVCAR-4; SF-539; CCRF-CEM; DU-145; TK-10; HT-29; ACHN; HCT-15; EKVX.
What all share (test): DTP human tumour cell line panel, 48 h

Several values for one entry are separate records, joined by “and”; a condition that tells them apart may be missing. Equal entries are not always repeated.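 How tested: cells in 96-well plates exposed to compound for 48 hours at five concentrations. Here, GI50 denotes the concentration required for 50% inhibition of growth.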 Activity calls are given as the source filed them. Cut-off read from the data, not from the text of the source: active = GI50 up to about 1.1 µM and inactive = higher. Where only a bound is given, the exact number is not on record here.

For the molecule `COC1C(OC(C)=O)CC(=O)OC(C)C/C=C/C=C\C(O)C(C)CC(CC=O)C1OC1OC(C)C(OC2CC(C)(O)C(OC(=O)CC(C)C)C(C)O2)C(N(C)C)C1O` (stereo not drawn), the GI50 (usually the concentration that inhibits growth by half) in the test on UACC-62 is > 100 µM (inactive); in the test on SK-OV-3, > 100 µM (inactive); with RXF 393, 82 µM (inactive); in the test with CAKI-1, > 100 µM (inactive); in the test with HCT-116, > 100 µM (inactive); with MDA-N it was 61.2 µM (inactive). Besides, the GI50 with MCF7 is > 100 µM (inactive) and 62.7 µM (inactive); with SW-620, > 100 µM (inactive); with COLO 205 it was > 100 µM (inactive) and 69.7 µM (inactive); with OVCAR-4 it was > 100 µM (inactive) and 68.5 µM (inactive); with SF-539 it was > 100 µM (inactive); in the test on CCRF-CEM it was 45.3 µM (inactive) and 33 µM (inactive). Besides, the GI50 with DU-145 was 97.9 µM (inactive); with TK-10, > 100 µM (inactive); in the test on HT-29 it was > 100 µM (inactive) and 67.9 µM (inactive); in the test with ACHN, > 100 µM (inactive).

Regarding `Nc1c(O)c(C(=O)O)cc2ccccc12`, the GI50 with UACC-62 is 17 µM (inactive); with SK-OV-3, > 100 µM (inactive); in the test on RXF 393, > 100 µM (inactive); with CAKI-1 it was 22.6 µM (inactive); with HCT-116 it was 17.5 µM (inactive); in the test with MDA-N, 17.9 µM (inactive). For the same molecule, the GI50 with MCF7 was 11.6 µM (inactive); in the test with SW-620, 18.3 µM (inactive); in the test with COLO 205, 26.1 µM (inactive); in the test with HCT-15, 36.6 µM; with EKVX, 53.8 µM (inactive); with OVCAR-4 it was 22.9 µM (inactive). The GI50 in the test on SF-539 is 40.6 µM (inactive); in the test on CCRF-CEM, 37.8 µM (inactive); in the test with DU-145, 17.9 µM (inactive); in the test with TK-10, 98.4 µM (inactive); in the test on HT-29, 17 µM (inactive); in the test with ACHN, 25.4 µM (inactive).

Consider `COC(=O)C1=C(C(=O)OC)SC2(S1)C(C(=O)OC)=C(C(=O)OC)Sc1c2ssc1=O`, for which the GI50 was 0.526 µM (active) in the test on UACC-62; 8.97 µM (inactive) in the test on SK-OV-3; 1.08 µM (active) in the test with RXF 393; 1.43 µM (inactive) in the test on CAKI-1; 0.459 µM (active) in the test on HCT-116; 1.66 µM (inactive) in the test with MDA-N. Also, the GI50 in the test with MCF7 is 1.26 µM (inactive); with SW-620, 0.661 µM (active); with COLO 205 it was 0.524 µM (active); in the test with HCT-15, 0.369 µM; in the test with EKVX, 2.16 µM (inactive); with OVCAR-4, 1.22 µM (inactive). Further, the GI50 in the test on SF-539 is 1.15 µM (inactive); with CCRF-CEM, 0.076 µM (active); in the test on DU-145 it was 0.877 µM (active); with TK-10, 1.58 µM (inactive); in the test with HT-29, 0.585 µM (active); in the test on ACHN it was 0.927 µM (active).

With `COc1ccc(C(O)c2ccc3c(c2)OCO3)cc1` (stereo not drawn), the GI50 in the test with UACC-62, with SK-OV-3, in the test with RXF 393, in the test on CAKI-1, in the test with HCT-116 and with MDA-N was > 100 µM (inactive) each time. Moreover, the GI50 was > 100 µM (inactive) in the test with MCF7; > 100 µM (inactive) with SW-620; > 100 µM (inactive) in the test on COLO 205; over 100 µM with HCT-15; > 100 µM (inactive) in the test with EKVX; 67.6 µM (inactive) in the test on OVCAR-4. The GI50 with SF-539, with CCRF-CEM, in the test on DU-145, with TK-10, in the test with HT-29 and in the test with ACHN was > 100 µM (inactive) each time.

On to `CN1CCCCC1CCN1c2ccccc2Sc2ccc([S+](C)[O-])cc21` (stereo not drawn) [MESORIDAZINE], for which the GI50 in the test on UACC-62, with SK-OV-3, with RXF 393, in the test on CAKI-1, in the test on HCT-116 and with MDA-N was > 100 µM (inactive) each time. Besides, the GI50 is > 100 µM (inactive) with MCF7; > 100 µM (inactive) with SW-620; > 100 µM (inactive) in the test on COLO 205; over 100 µM with HCT-15; > 100 µM (inactive) in the test with EKVX; > 100 µM (inactive) in the test with OVCAR-4. Also, the GI50 with SF-539, in the test on CCRF-CEM, with DU-145, with TK-10, in the test with HT-29 and in the test with ACHN was > 100 µM (inactive) each time.

Regarding `CC(N/N=N/c1ccc(-c2nc3ccccc3[nH]2)cc1)C(=O)O` (stereo not drawn), the GI50 in the test on SK-OV-3 was > 100 µM (inactive); with RXF 393, 34.1 µM (inactive); in the test with CAKI-1 it was 42.7 µM (inactive); in the test on HCT-116 it was 28.9 µM (inactive); with MDA-N, 27.5 µM (inactive); in the test on MCF7, 4.21 µM (inactive). For the same molecule, the GI50 in the test on SW-620 was 29.8 µM (inactive); with COLO 205, 25.9 µM (inactive); in the test with HCT-15 it was 9.57 µM; with EKVX it was 31.8 µM (inactive); with OVCAR-4, 37.6 µM (inactive); with SF-539, 55 µM (inactive). In addition, the GI50 was 3.18 µM (inactive) with CCRF-CEM; 49.4 µM (inactive) in the test on DU-145; 81.7 µM (inactive) in the test with TK-10; 29.5 µM (inactive) in the test on HT-29; 40.3 µM (inactive) with ACHN.

`CCCCCCCCCC/C=C/CC(=O)SCCNC(=O)CCNC(=O)[C@@H](O)C(C)(C)COP(=O)(O)OP(=O)(O)OCC1OC(n2cnc3c(N)ncnc32)C(O)C1OP(=O)(O)O` (stereo partly drawn): the GI50 with UACC-62, in the test on SK-OV-3, in the test on RXF 393, in the test with CAKI-1, with HCT-116 and in the test on MDA-N was > 10 µM (inactive) in each case. The GI50 in the test on MCF7 was > 10 µM (inactive); with SW-620 it was > 10 µM (inactive); in the test with COLO 205, > 10 µM (inactive); in the test on HCT-15, over 10 µM; in the test on EKVX, > 10 µM (inactive); in the test with OVCAR-4 it was > 10 µM (inactive). Moreover, the GI50 in the test on SF-539, in the test on CCRF-CEM, with DU-145, in the test with TK-10, in the test with HT-29 and with ACHN was > 10 µM (inactive) in each case.

`COc1cc2c(NCCCCCO)ncnc2c(OC)c1OC`: the GI50 with UACC-62, with SK-OV-3, with RXF 393, in the test on CAKI-1, in the test with HCT-116 and in the test on MDA-N was > 100 µM (inactive) in each case. Further, the GI50 was > 100 µM (inactive) in the test with MCF7; > 100 µM (inactive) in the test with SW-620; > 100 µM (inactive) in the test with COLO 205; over 100 µM in the test with HCT-15; > 100 µM (inactive) with EKVX; > 100 µM (inactive) in the test on OVCAR-4. Besides, the GI50 in the test with SF-539 is > 100 µM (inactive); with CCRF-CEM, > 93.3 µM (inactive); with DU-145 it was > 100 µM (inactive); in the test with TK-10, > 100 µM (inactive); in the test on HT-29, > 100 µM (inactive); with ACHN it was > 100 µM (inactive).

For the molecule `COc1c2occc2c(OC)c2c(=O)c(S(=O)(=O)NC(=O)Nc3ccc(Cl)cc3)coc12`, the GI50 with UACC-62, with SK-OV-3, in the test with RXF 393, in the test on CAKI-1, in the test on HCT-116 and in the test on MDA-N was > 10 µM (inactive) throughout. Besides, the GI50 in the test with MCF7 was > 10 µM (inactive); with SW-620, > 10 µM (inactive); with COLO 205 it was > 10 µM (inactive); in the test on HCT-15 it was over 10 µM; with EKVX, > 10 µM (inactive); in the test with OVCAR-4, > 10 µM (inactive). Further, the GI50 in the test with SF-539, with CCRF-CEM, with DU-145, in the test with TK-10, in the test on HT-29 and in the test on ACHN was > 10 µM (inactive) each time.

For the molecule `CC(C)C[C@H]1[C@@H](OCc2ccccc2)COS(=O)(=O)N1[C@H](C)c1ccccc1`, the GI50 with UACC-62 is > 100 µM (inactive); in the test on SK-OV-3, > 93.1 µM (inactive); in the test on RXF 393, 29.1 µM (inactive); with CAKI-1 it was > 100 µM (inactive); in the test on HCT-116, 5.24 µM (inactive); in the test on MDA-N it was > 78.5 µM (inactive). Moreover, the GI50 in the test on MCF7 is 21.7 µM (inactive); with SW-620 it was > 100 µM (inactive); in the test on COLO 205, > 72.6 µM (inactive); with HCT-15 it was 29.1 µM; in the test on EKVX, 22.1 µM (inactive); with OVCAR-4 it was > 100 µM (inactive). Besides, the GI50 was > 100 µM (inactive) in the test with SF-539; 8.71 µM (inactive) with CCRF-CEM; 37.9 µM (inactive) in the test on DU-145; 83 µM (inactive) with TK-10; 26.9 µM (inactive) in the test with HT-29; 48 µM (inactive) in the test on ACHN.

For `c1ccc2nn(C3CCCO3)nc2c1` (stereo not drawn), the GI50 in the test on UACC-62, in the test with SK-OV-3, with RXF 393, in the test with CAKI-1, with HCT-116 and in the test on MDA-N was > 100 µM (inactive) in each case. In addition, the GI50 was > 100 µM (inactive) in the test with MCF7; > 100 µM (inactive) with COLO 205; over 100 µM with HCT-15; > 100 µM (inactive) with EKVX; > 100 µM (inactive) with OVCAR-4; > 100 µM (inactive) with SF-539. In addition, the GI50 in the test with CCRF-CEM, in the test with DU-145, in the test with TK-10 and with HT-29 was > 100 µM (inactive) each time.

For the origin of these results see ChEMBL document CHEMBL1201862, “PubChem BioAssay data set” (2004).
